Test results from ChEMBL document CHEMBL4354831, “Novel Cell-Penetrating Peptide Conjugated Proteasome Inhibitors: Anticancer and Antifungal Investigations” (J Med Chem, 2020).
In brackets after ≈: the same amount, converted by molar mass. Activity calls are given as the source filed them. The calls are words filed in the database; no cut-off is given here. Peptide text beside a SMILES is read from it.

Tests used:
HeLa [1] = experiment: Antiproliferative activity against human HeLa cells assessed as reduction in cell viability after 48 hrs by MTT assay; type: functional, cell-based
Candida albicans SC5314 = experiment: Inhibition of Candida albicans SC5314 proteasome at antifungal MIC after 12 hrs by fluorescence based analysis
BE(2)-C [2] = experiment: Induction of ROS generation in human BE(2)-C cells at 0.4 to 200 uM after 24 hrs in presence of ROS quencher, ascorbic acid by DCFH-DA staining based fluorescence analysis; type: functional, cell-based
HeLa [3] = experiment: Ratio of IC50 for antiproliferative activity against human HeLa cells to IC50 for antiproliferative activity against human HeLa in presence of cisplatin; type: functional
[4] = molecular target: T1, 20S proteasome (Homo sapiens) (UniProt P49721+P20618+P28074+P28062+P28065+P28072+P25786+P25787+P25788+P25789+P28066+P60900+O14818+Q8TAA3+P40306+A5LHX3+P49720+P28070+Q99436); experiment: Inhibition of 20S proteasome in human HeLa cells at 2xIC50 using LLVY-R110 peptide as substrate measured up to 36 hrs by fluorescence based assay; type: cell-based
BE(2)-C [5] = experiment: Induction of membrane disruption in human BE(2)-C cells assessed as membrane lysis at 2xIC50 after 24 hrs by SYTO9/PI-staining based inverted fluorescence microscopic analysis; conditions: Cell membrane
BE(2)-C [6] = experiment: Synergistic antiproliferative activity against human BE(2)-C cells assessed as FICI in presence of cisplatin after 48 hrs by MTT assay; type: functional
[7] = molecular target: T1, 20S proteasome (Homo sapiens); experiment: Potency index, ratio of ixazomib IC50 to compound IC50 for inhibition of human 20S proteasome using Suc-LLVY-AMC as substrate measured every 5 mins for 120 mins by fluorescence based assay; type: protein-complex assay
BE(2)-C [8] = experiment: Induction of apoptosis in human BE(2)-C cells assessed as DNA damage at 2xIC50 after 24 hrs by SYTO9/PI-staining based inverted fluorescence microscopic analysis; type: functional, cell-based
BE(2)-C [9] = experiment: Antiproliferative activity against human BE(2)-C cells assessed as reduction in cell viability in presence of cisplatin after 48 hrs by MTT assay; type: functional, cell-based
HeLa [10] = experiment: Induction of ROS generation in human HeLa cells at 0.4 to 200 uM after 24 hrs in presence of ROS quencher, ascorbic acid by DCFH-DA staining based fluorescence analysis; type: functional, cell-based
HeLa [11] = experiment: Antiproliferative activity against human HeLa cells assessed as cell viability at 10.2 uM after 48 hrs by MTT assay relative to control; type: functional; conditions: read-out: Activity
HeLa [12] = experiment: Antiproliferative activity against human HeLa cells assessed as cell viability at 10.2 uM in presence of 6.3 uM cisplatin after 48 hrs by MTT assay relative to control; type: functional
BE(2)-C [13] = experiment: Antiproliferative activity against human BE(2)-C cells assessed as cell viability at 10.3 uM after 48 hrs by MTT assay relative to control; type: functional; conditions: read-out: Activity
BE(2)-C [14] = experiment: Induction of ROS generation in human BE(2)-C cells after 24 hrs by DCFH-DA staining based fluorescence analysis; type: functional, cell-based
HeLa [15] = experiment: Induction of apoptosis in human HeLa cells at 2xIC50 after 24 hrs by Annexin-V alexa fluor 488/PI staining based fluorescence microscopic analysis; type: functional, cell-based
HeLa [16] = experiment: Induction of ROS generation in human HeLa cells at 2xIC50 measured up to 24 hrs in presence of ROS quencher, ascorbic acid by DCFH-DA staining based fluorescence analysis; type: functional, cell-based
HeLa [17] = experiment: Synergistic antiproliferative activity against human HeLa cells assessed as FICI in presence of cisplatin after 48 hrs by MTT assay; type: functional
[18] = molecular target: T1, 20S proteasome (Homo sapiens); experiment: Inhibition of 20S proteasome in human BE(2)-C cells at 2xIC50 using LLVY-R110 peptide as substrate measured up to 36 hrs by fluorescence based assay; type: cell-based
Candida albicans [19] = experiment: Antifungal activity against Candida albicans SC5314 after 48 hrs; type: functional; conditions: SC5314, 48 h
BE(2)-C [20] = experiment: Antiproliferative activity against human BE(2)-C cells assessed as cell viability at 10.3 uM in presence of 5.3 uM cisplatin after 48 hrs by MTT assay relative to control; type: functional
Candida albicans [21] = experiment: Antibiofilm activity against 24 hrs preformed biofilm of Candida albicans SC5314 assessed as biofilm cell eradication at 125 uM after 24 hrs by XTT assay relative to control; type: functional
Candida albicans [22] = experiment: Antibiofilm activity against 24 hrs preformed biofilm of Candida albicans SC5314 assessed as biofilm cell eradication at 62.5 uM after 24 hrs by XTT assay relative to control; type: functional
HeLa [23] = experiment: Antiproliferative activity against human HeLa cells assessed as cell viability at 4.7 uM after 48 hrs by MTT assay relative to control; type: functional; conditions: read-out: Activity
BE(2)-C [24] = experiment: Antiproliferative activity against human BE(2)-C cells assessed as cell viability at 4.7 uM in presence of 5.3 uM cisplatin after 48 hrs by MTT assay relative to control; type: functional
BE(2)-C [25] = experiment: Antiproliferative activity against human BE(2)-C cells assessed as cell viability at 4.7 uM after 48 hrs by MTT assay relative to control; type: functional; conditions: read-out: Activity
HeLa [26] = experiment: Antiproliferative activity against human HeLa cells assessed as cell viability at 4.7 uM in presence of 6.3 uM cisplatin after 48 hrs by MTT assay relative to control; type: functional

SMILES	IC50 (HeLa [1]) [µM]	inhibition (Candida albicans SC5314)	Activity (BE(2)-C [2])	Ratio IC50 (HeLa [3])	inhibition [4]	Activity (BE(2)-C [5])	fractional inhibitory concentration index (FICI) (BE(2)-C [6])	Ratio IC50 [7]	Activity (BE(2)-C [8])	IC50 (BE(2)-C [9]) [µM]	Activity (HeLa [10])	Activity (BE(2)-C [14])	Activity (HeLa [15])	Activity (HeLa [16])	fractional inhibitory concentration index (FICI) (HeLa [17])	inhibition [18]	MIC (Candida albicans [19]) [µM]	other results
CC(=O)N[C@@H](Cc1ccc(O)cc1)C(=O)NCC(=O)N[C@@H](CCCNC(=N)N)C(=O)N[C@@H](CCCCN)C(=O)N[C@@H](CCCCN)C(=O)N[C@@H](CCCNC(=N)N)C(=O)N[C@@H](CCCNC(=N)N)C(=O)N[C@@H](CCC(N)=O)C(=O)N[C@@H](CCCNC(=N)N)C(=O)N[C@@H](CCCNC(=N)N)C(=O)N[C@@H](CCCNC(=N)N)C(=O)NCC(=O)NCC(=O)NCC(=O)N[C@@H](CC(C)C)C(=O)N[C@@H](CC(C)C)C(=O)N[C@H](C=O)CC(C)C (Ac-YGRKKRRQRRRGGGLLL-aldehyde)	10.2	Active	inactive	5	Active	Active	0.79	6	Active	4.19	inactive	Dose-dependent effect	Active	inactive	0.34	Active	31.2 (≈ 65.5 µg/mL)	viability at 10.2 µM (HeLa [11]): 52%; Activity (HeLa [12]): 14%; viability at 10.3 µM (BE(2)-C [13]): > 50%; Activity (BE(2)-C [20]): 13%; Activity (Candida albicans [21]): >50%
CC(=O)N[C@@H](Cc1ccc(O)cc1)C(=O)NCC(=O)N[C@@H](CCCNC(=N)N)C(=O)N[C@@H](CCCCN)C(=O)N[C@@H](CCCCN)C(=O)N[C@@H](CCCNC(=N)N)C(=O)N[C@@H](CCCNC(=N)N)C(=O)N[C@@H](CCC(N)=O)C(=O)N[C@@H](CCCNC(=N)N)C(=O)N[C@@H](CCCNC(=N)N)C(=O)N[C@@H](CCCNC(=N)N)C(=O)NCC(=O)NCC(=O)NCC(=O)N[C@@H](Cc1ccc(O)cc1)C(=O)N[C@@H](CC(C)C)C(=O)N[C@@H](Cc1ccccc1)C(=O)N[C@H](C=O)CC(C)C (Ac-YGRKKRRQRRRGGGYLFL-aldehyde)	4.7	Active	inactive	4	Active	Active	0.49	4	Active	1.58	inactive	Dose-dependent effect	Active	inactive	0.33	Active	15.6 (≈ 35.8 µg/mL)	Activity (Candida albicans [22]): >50%; viability at 4.7 µM (HeLa [23]): > 50%; Activity (BE(2)-C [24]): 11%; viability at 4.7 µM (BE(2)-C [25]): > 50%; Activity (HeLa [26]): 18%
